From patent US8470534B2, “Methods of predicting resistance or sensitivity to therapies for cancer” (priority 2006, dated 2013) come the findings set out here.

For assay [1], the system named is ER-positive human breast tumors. In words: Recurrence outcome of ER-positive breast cancer patients on Tam monotherapy by RB/E2F target gene expression group. It is filed as in vivo. The method, then:
To determine the significance of RB/E2F target gene expression in human breast cancer, a tumor microarray data set representing 60 breast cancer patients with ER-positive disease who are treated with Tam monotherapy is analyzed. The tumor specimens in all cases are both micro- and macrodissected. […] This clustering placed the macro- and micro-dissected samples from 59 of 60 patients in the same gene expression groups, with only 1 tumor signature split between the high and medium gene expression groups on the condition tree.
To address the importance of the RB deficiency signature on therapeutic response, patient outcome is examined. […] For each patient, the time to disease recurrence is known, and a recurrence-free survival curve is generated (FIG. 6C). Patients responded poorly to Tam in the high expression group, wherein the median recurrence-free survival is 62.5 months, and only 35% remained recurrence free. […] Thus, compromised control of the RB/E2F axis is associated with poor response to Tam in human breast cancer.

In assay [2] the test system is MCF7, T47D, and Zr-75-1 cells. The assay can be described thus: BrdU incorporation under hormone deprivation / antiestrogen (CDT, CDT/Tam, CDT/ICI). It is filed as cell-based, human. Here is the method:
To understand the impact of RB deficiency on the response to hormone deprivation therapy, cells are cultured in CDT, CDT/Tam, or in the presence of pure antiestrogen, ICI182780 (CDT/ICI). Following treatment with these modalities, cells are labeled with BrdU to determine the influence of each agent on cell-cycle progression and the corresponding influence of RB knockdown on this response (FIG. 4B). These experiments are recapitulated in the polyclonal populations of T47D and Zr-75-1 donor and siRb88 cells (FIG. 4C). […] To elucidate the long-term growth effects of these therapies, cell proliferation assays are performed over 9 days. RB-proficient and -deficient MCF7 cells are seeded at equal densities and cultured in CDT/Tam (FIG. 4D). […] Similar results are evident in the same experiments with both T47D and Zr-75-1 RB-proficient and -deficient polyclonal pools (FIG. 4E).
RB target gene upregulation is a prognostic indicator in human breast cancers. RB performs a myriad of functions, the most well understood being repression of the E2F family of transcription factors. To determine the specific influence of the E2F axis on bypassing therapy, an activator E2F is overexpressed in wild-type MCF7 cells. Specifically, cells are infected either with an adenovirus encoding E2F3 (ad-E2F3) or a control virus (Ad-LacZ) and are harvested 3 days after infection for immunoblot analysis of levels of known RB-E2F targets (FIG. 5A). […] As expected, no changes are detected in RB levels, and CDK4 serves as a loading control. In order to assess the response to therapeutic intervention, 3 days after infection Ad-E2F3- or AdLacZ-infected MCF7 cells are separated into 2 major treatment groups: hormone therapy and DNA damage therapy. The estrogen ablation group is then cultured in the absence of estrogen and in the presence of Tam and ICI as described above. Alternatively, the cells in the DNA damage therapy group are treated with 16 μM CDDP for 18 hours prior to washing or treatment with 5 Gy IR. Cells from both therapy groups are BrdU labeled, and the replicative fraction of treated cells is determined with respect to untreated control cells (FIG. 5B).
To study the effect of estrogen depletion, cells are cultured for 72 hours in phenol red-free DMEM supplemented with 10% CDT serum with addition of 10^−9 M 4-HydroxyTam or 10^−6 M ICI where indicated. Cell growth assays are performed by trypsinizing cells and counting by trypan blue exclusion every 3 days.
Cells treated with IR are exposed to ^137Cs (dose rate: 0.67 Gy/min) at room temperature in tissue culture media. Culture with clinical grade CDDP for 18 hours is performed for all CDDP treatments. For all proliferation studies, cells are labeled with BrdU for 10 hours or 5 hours for LXSN/LXSN-p53dd infected cells, and BrdU immunofluorescence is performed as previously described. All BrdU results are expressed as a percentage of untreated control cells set to 100%, unless otherwise noted.

Setting [3] is: high expression group, Tam monotherapy.

As to `CC/C(=C(\c1ccccc1)c1ccc(OCCN(C)C)cc1)c1ccccc1` [Tam, tamoxifen], in assay [1] (setting [3]), the median recurrence-free survival is 62.5 months and the “patients remaining recurrence free” value turned out to be 35%. Besides, the “patients remaining disease free” value in assay [1] (low/medium RB target gene expression groups, Tam therapy) was “greater than 62%”. In addition, in assay [1] (patients in the high RB/E2F target gene group, Tam monotherapy), the “incidence of cancer recurrence” value was found to be 65%. For the same molecule, the “incidence of cancer recurrence” value in assay [1] (patients in the other 2 groups (low/medium), Tam monotherapy) was determined as 38%. In assay [2] (Ad-E2F3-infected versus control infected MCF7 cells, absence of estrogen plus agent), the “cell-cycle arrest (replicative fraction, BrdU)” value was “significantly reduced levels of cell-cycle arrest”. Moreover, in assay [2] (RB-depleted cells (MCF7 siRb28, T47D and Zr-75-1 siRb88), CDT serum plus agent, 3 days), the “cell-cycle inhibition by the agent (BrdU labeling)” value is “significantly reduced”. In addition, the “cell-cycle progression (BrdU labeling)” value in assay [2] (cells harboring functional RB (MCF7, T47D, Zr-75-1 donor), CDT serum plus agent, 3 days, 10^−9 M 4-HydroxyTam or 10^−6 M ICI) is on record as “elicit cell-cycle inhibition”.
